Results reported in patent US12281149B2, “Modulators of G-protein coupled receptors” (priority 2021, dated 2025).
*1 amine or outer side, *2 acyl side, *3 side chain or, on linkers, in order; H or OH if unused. Where a SMILES comes first, the peptide text is derived from it. Side-chain parts run from the residue outwards. [ ]: non-standard residue; d: D form. The star is where a group is joined. Isobutyryl(2-(3-CN-5-F-Ph)) = CC(C)(C(=O)*)c1cc(F)cc(C#N)c1; Ala(1H-tetrazol-5-yl) = N[C@@H](Cc1nnn[nH]1)C(=O)O; C20 diacid = O=C(O)CCCCCCCCCCCCCCCCCCC(=O)*; X31 = CC(C)(C(=S)NCCC(=O)*)c1cc(F)cc(C#N)c1; X73 = CC(C)(C(=S)NCCC(=O)*)c1ccc(F)c(F)c1; αMePhe(2-F) = C[C@](N)(Cc1ccccc1F)C(=O)O; γGlu = O=C(O)[C@H](CCC(=O)[*:2])N[*:1]; X9 = CC(C)(C(=O)*)c1cc(F)cc(C(=O)O)c1; X27 = O=C1CC(C(=O)*)(c2ccccc2)CN1; AEEA = NCCOCCOCC(=O)O; Aib = CC(C)(N)C(=O)O; βAla = NCCC(=O)O

Legend:
Format in all cases: cell-based
GIP receptor [1] = biological target: T1, GIP receptor (Homo sapiens, UniProt P48546); experiment: HitHunter cAMP assay, GIP receptor; conditions: for EC50: CHO cells stably expressing GIP receptor, cAMP accumulation, 30 min, read-out: EC50 GIP-1R; for Emax: CHO cells, cAMP, normalized to maximum signal from GIP (high) and DMSO (low), read-out: Emax GIP-1R
T1 sequence (P48546 22-466): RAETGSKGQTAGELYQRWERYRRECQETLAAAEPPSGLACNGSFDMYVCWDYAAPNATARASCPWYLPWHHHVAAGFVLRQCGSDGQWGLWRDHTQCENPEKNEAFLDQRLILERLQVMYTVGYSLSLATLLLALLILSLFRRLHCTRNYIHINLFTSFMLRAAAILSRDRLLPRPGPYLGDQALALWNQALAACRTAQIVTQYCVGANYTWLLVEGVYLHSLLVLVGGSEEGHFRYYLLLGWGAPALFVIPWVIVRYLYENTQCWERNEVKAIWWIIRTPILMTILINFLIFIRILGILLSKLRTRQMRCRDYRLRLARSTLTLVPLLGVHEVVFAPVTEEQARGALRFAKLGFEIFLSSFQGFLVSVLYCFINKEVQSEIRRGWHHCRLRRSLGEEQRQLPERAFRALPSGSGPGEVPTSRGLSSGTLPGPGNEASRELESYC

GLP-1 receptor [2] = biological target: T2, GLP-1 receptor (Homo sapiens, UniProt P43220); experiment: HitHunter cAMP assay, GLP-1 receptor; conditions: for EC50: CHO cells stably expressing human GLP-1 receptor, cAMP accumulation, 30 min, read-out: EC50 GLP-1R; for Emax: CHO cells, cAMP, normalized to maximum signal from GLP-1 (high) and DMSO (low), read-out: Emax GLP-1R
T2 sequence (P43220 24-463): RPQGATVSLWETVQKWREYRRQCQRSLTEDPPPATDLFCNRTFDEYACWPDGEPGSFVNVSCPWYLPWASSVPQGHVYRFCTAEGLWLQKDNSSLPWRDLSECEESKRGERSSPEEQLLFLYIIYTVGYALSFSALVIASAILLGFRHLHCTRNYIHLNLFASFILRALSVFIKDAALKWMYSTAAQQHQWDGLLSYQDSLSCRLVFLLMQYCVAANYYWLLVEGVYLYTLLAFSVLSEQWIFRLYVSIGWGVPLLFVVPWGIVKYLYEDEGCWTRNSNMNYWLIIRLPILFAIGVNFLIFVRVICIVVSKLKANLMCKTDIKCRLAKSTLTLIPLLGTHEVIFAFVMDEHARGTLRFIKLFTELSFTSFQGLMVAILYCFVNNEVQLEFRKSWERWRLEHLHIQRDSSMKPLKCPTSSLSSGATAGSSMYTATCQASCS

GIP receptor [3] = biological target: T1, GIP receptor; experiment: PathHunter β-arrestin assay, GIP receptor; parameters: host or cells: PathHunter CHO-K1 GIPR β-Arrestin Cell Line; conditions: β-arrestin-2 recruitment, PathHunter CHO-K1 GIPR β-Arrestin Cell Line, 90 min at 37° C.; normalized to GIP; read-out: GIPR β Arrestin EC50
GLP-1 receptor [4] = biological target: T2, GLP-1 receptor; experiment: PathHunter β-arrestin assay, GLP-1 receptor; parameters: host or cells: PathHunter CHO-K1 GLP1R β-Arrestin Cell Line; conditions: β-arrestin-2 recruitment, PathHunter CHO-K1 GLP1R β-Arrestin Cell Line, 90 min at 37° C.; normalized to GLP-1; read-out: GLP-1R β Arrestin EC50

| SMILES | EC50 (GIP receptor [1]) [nM] | Emax (GIP receptor [1]) [%] | EC50 (GLP-1 receptor [2]) [nM] | Emax (GLP-1 receptor [2]) [%] | EC50 (GIP receptor [3]) [nM] | EC50 (GLP-1 receptor [4]) [nM] |
| --- | --- | --- | --- | --- | --- | --- |
| CC[C@H](C)[C@H](NC(=O)[C@H](CC(C)C)NC(=O)[C@H](Cc1c[nH]c2ccccc12)NC(=O)[C@H](CCC(N)=O)NC(=O)[C@@H](NC(=O)[C@H](Cc1ccccc1)NC(=O)[C@H](C)NC(=O)[C@H](CCCCNC(=O)COCCOCCNC(=O)COCCOCCNC(=O)CC[C@H](NC(=O)CCCCCCCCCCCCCCCCCCC(=O)O)C(=O)O)NC(=O)[C@H](CCC(N)=O)NC(=O)[C@H](C)NC(=O)[C@@H](NC(=O)[C@H](CCCCN)NC(=O)[C@H](CC(=O)O)NC(=O)[C@H](CC(C)C)NC(=O)C(C)(C)NC(=O)[C@@H](NC(=O)[C@H](CO)NC(=O)[C@H](Cc1ccc(O)cc1)NC(=O)[C@H](CC(=O)O)NC(=O)[C@H](CO)NC(=O)[C@@H](NC(=O)[C@H](Cc1ccccc1)NC(=O)[C@@H](NC(=O)CNC(=O)[C@H](CCC(=O)O)NC(=O)CCNC(=S)C(C)(C)c1cc(F)cc(C#N)c1)[C@@H](C)O)[C@@H](C)O)[C@@H](C)CC)[C@@H](C)CC)C(C)C)C(=O)N[C@@H](C)C(=O)NCC(=O)NCC(=O)N1CCC[C@H]1C(=O)N[C@@H](CO)C(=O)N[C@@H](CO)C(=O)NCC(=O)N[C@@H](C)C(=O)N1CCC[C@H]1C(=O)N1CCC[C@H]1C(=O)N1CCC[C@H]1C(=O)N[C@@H](CO)C(N)=O [Compound 135] (X31-EGTFTSDYSI[Aib]LDKIAQK([AEEA-AEEA-γGlu-C20 diacid])AFVQWLIAGGPSSGAPPPS-NH2) | 10 to 100 | 87 | 0.1 to 1 | 99 | > 1000 | > 1000 |
| CC[C@H](C)[C@H](NC(=O)[C@H](CC(C)C)NC(=O)[C@H](Cc1c[nH]c2ccccc12)NC(=O)[C@H](CCC(N)=O)NC(=O)[C@@H](NC(=O)[C@H](Cc1ccccc1)NC(=O)[C@H](C)NC(=O)[C@H](CCCCNC(=O)COCCOCCNC(=O)COCCOCCNC(=O)CC[C@H](NC(=O)CCCCCCCCCCCCCCCCCCC(=O)O)C(=O)O)NC(=O)[C@H](CCC(N)=O)NC(=O)[C@H](C)NC(=O)[C@@H](NC(=O)[C@H](CCCCN)NC(=O)[C@H](CC(=O)O)NC(=O)[C@H](CC(C)C)NC(=O)C(C)(C)NC(=O)[C@@H](NC(=O)[C@H](CO)NC(=O)[C@H](Cc1ccc(O)cc1)NC(=O)[C@H](CC(=O)O)NC(=O)[C@H](CO)NC(=O)[C@@H](NC(=O)[C@H](Cc1ccccc1)NC(=O)[C@@H](NC(=O)CNC(=O)[C@H](Cc1nn[nH]n1)NC(=O)CCNC(=O)C(C)(C)c1cc(F)cc(C#N)c1)[C@@H](C)O)[C@@H](C)O)[C@@H](C)CC)[C@@H](C)CC)C(C)C)C(=O)N[C@@H](C)C(=O)NCC(=O)NCC(=O)N1CCC[C@H]1C(=O)N[C@@H](CO)C(=O)N[C@@H](CO)C(=O)NCC(=O)N[C@@H](C)C(=O)N1CCC[C@H]1C(=O)N1CCC[C@H]1C(=O)N1CCC[C@H]1C(=O)N[C@@H](CO)C(N)=O [Compound 136] ({Isobutyryl(2-(3-CN-5-F-Ph))-βAla}-[Ala(1H-tetrazol-5-yl)]GTFTSDYSI[Aib]LDKIAQK([AEEA-AEEA-γGlu-C20 diacid])AFVQWLIAGGPSSGAPPPS-NH2) | 1 to 10 | 99 | < 0.1 | 101 | < 1000 | > 1000 |
| CC[C@H](C)[C@H](NC(=O)[C@H](CC(C)C)NC(=O)[C@H](Cc1c[nH]c2ccccc12)NC(=O)[C@H](CCC(N)=O)NC(=O)[C@@H](NC(=O)[C@H](Cc1ccccc1)NC(=O)[C@H](C)NC(=O)[C@H](CCCCNC(=O)COCCOCCNC(=O)COCCOCCNC(=O)CC[C@H](NC(=O)CCCCCCCCCCCCCCCCCCC(=O)O)C(=O)O)NC(=O)[C@H](CCC(N)=O)NC(=O)[C@H](C)NC(=O)[C@@H](NC(=O)[C@H](CCCCN)NC(=O)[C@H](CC(=O)O)NC(=O)[C@H](CC(C)C)NC(=O)C(C)(C)NC(=O)[C@@H](NC(=O)[C@H](CO)NC(=O)[C@H](Cc1ccc(O)cc1)NC(=O)[C@H](CC(=O)O)NC(=O)[C@H](CO)NC(=O)[C@@H](NC(=O)[C@H](Cc1ccccc1)NC(=O)[C@@H](NC(=O)CNC(=O)[C@H](CCC(=O)O)NC(=O)CCNC(=S)C(C)(C)c1ccc(F)c(F)c1)[C@@H](C)O)[C@@H](C)O)[C@@H](C)CC)[C@@H](C)CC)C(C)C)C(=O)N[C@@H](C)C(=O)NCC(=O)NCC(=O)N1CCC[C@H]1C(=O)N[C@@H](CO)C(=O)N[C@@H](CO)C(=O)NCC(=O)N[C@@H](C)C(=O)N1CCC[C@H]1C(=O)N1CCC[C@H]1C(=O)N1CCC[C@H]1C(=O)N[C@@H](CO)C(N)=O [Compound 137] (X73-EGTFTSDYSI[Aib]LDKIAQK([AEEA-AEEA-γGlu-C20 diacid])AFVQWLIAGGPSSGAPPPS-NH2) | 10 to 100 | 87 | 0.1 to 1 | 99 | > 1000 | > 1000 |
| CC[C@H](C)[C@H](NC(=O)[C@H](CO)NC(=O)[C@H](CCCCNC(=O)COCCOCCNC(=O)COCCOCCNC(=O)CC[C@H](NC(=O)CCCCCCCCCCCCCCCCCCC(=O)O)C(=O)O)NC(=O)[C@H](CC(=O)O)NC(=O)[C@H](CO)NC(=O)[C@@H](NC(=O)[C@](C)(Cc1ccccc1F)NC(=O)[C@@H](NC(=O)CNC(=O)[C@H](CCC(=O)O)NC(=O)CCNC(=O)C1(c2ccccc2)CNC(=O)C1)[C@@H](C)O)[C@@H](C)O)C(=O)N[C@@H](Cc1ccc(O)cc1)C(=O)N[C@@H](CC(C)C)C(=O)N[C@@H](CC(=O)O)C(=O)N[C@@H](CCCCN)C(=O)N[C@@H](CCC(N)=O)C(=O)N[C@@H](C)C(=O)N[C@@H](C)C(=O)NC(C)(C)C(=O)N[C@@H](CCC(=O)O)C(=O)N[C@@H](Cc1ccccc1)C(=O)N[C@H](C(=O)N[C@@H](CC(N)=O)C(=O)N[C@@H](Cc1c[nH]c2ccccc12)C(=O)N[C@@H](CC(C)C)C(=O)N[C@@H](CC(C)C)C(=O)N[C@@H](C)C(=O)NCC(=O)NCC(=O)N1CCC[C@H]1C(=O)N[C@@H](CO)C(=O)N[C@@H](CO)C(=O)NCC(=O)N[C@@H](C)C(=O)N1CCC[C@H]1C(=O)N1CCC[C@H]1C(=O)N1CCC[C@H]1C(=O)N[C@@H](CO)C(N)=O)C(C)C (stereo partly drawn) [Compound 138] ({X27-βAla}-EGT[αMePhe(2-F)]TSDK([AEEA-AEEA-γGlu-C20 diacid])SIYLDKQAA[Aib]EFVNWLLAGGPSSGAPPPS-NH2) | 0.1 to 1 | 100 | < 0.1 | 100 | < 1000 | < 1000 |
| CC[C@H](C)[C@H](NC(=O)[C@H](CC(C)C)NC(=O)[C@H](Cc1c[nH]c2ccccc12)NC(=O)[C@H](CCC(N)=O)NC(=O)[C@@H](NC(=O)[C@H](Cc1ccccc1)NC(=O)[C@H](C)NC(=O)[C@H](CCCCNC(=O)COCCOCCNC(=O)COCCOCCNC(=O)CC[C@H](NC(=O)CCCCCCCCCCCCCCCCCCC(=O)O)C(=O)O)NC(=O)[C@H](CCC(N)=O)NC(=O)[C@H](C)NC(=O)[C@@H](NC(=O)[C@H](CCCCN)NC(=O)[C@H](CC(=O)O)NC(=O)[C@H](CC(C)C)NC(=O)C(C)(C)NC(=O)[C@@H](NC(=O)[C@H](CO)NC(=O)[C@H](Cc1ccc(O)cc1)NC(=O)[C@H](CC(=O)O)NC(=O)[C@H](CO)NC(=O)[C@@H](NC(=O)[C@H](Cc1ccccc1)NC(=O)[C@@H](NC(=O)CNC(=O)[C@H](CCC(=O)O)NC(=O)CCNC(=O)C(C)(C)c1cc(F)cc(C(=O)O)c1)[C@@H](C)O)[C@@H](C)O)[C@@H](C)CC)[C@@H](C)CC)C(C)C)C(=O)N[C@@H](C)C(=O)NCC(=O)NCC(=O)N1CCC[C@H]1C(=O)N[C@@H](CO)C(=O)N[C@@H](CO)C(=O)NCC(=O)N[C@@H](C)C(=O)N1CCC[C@H]1C(=O)N1CCC[C@H]1C(=O)N1CCC[C@H]1C(=O)N[C@@H](CO)C(N)=O [Compound 139] ({X9-βAla}-EGTFTSDYSI[Aib]LDKIAQK([AEEA-AEEA-γGlu-C20 diacid])AFVQWLIAGGPSSGAPPPS-NH2) | 10 to 100 | 109 | 1 to 10 | 102 | > 1000 | > 1000 |
